The CheMixHub viscosity set

Assay: xn = mol fraction of the nth substance listed

CC(C)[O-].CC(C)[O-].CC(C)[O-].CC(C)[O-].[Ti+4] + CC(C)O
viscosity [mPa·s], 101.3 kPa
Conditions	x1 = 0.0502	x1 = 0.1236	x1 = 0.2408	x1 = 0.4582	x1 = 0.6555
293.15 K	2.274	2.136	2.072	2.134	2.287
303.15 K	1.659	1.526	1.458	1.535	1.498
313.15 K	1.274	1.185	1.133	1.167	1.123
323.15 K	0.9981	0.9549	0.9172	0.9361	0.9108

ClC(Cl)(Cl)Cl + CC(C)O
313.15 K, 101.33 kPa
Conditions	viscosity [mPa·s]
x2 = 0.115	0.7291
x2 = 0.22	0.7336
x2 = 0.325	0.7548
x2 = 0.421	0.7812
x2 = 0.5	0.8175
x2 = 0.602	0.8746
x2 = 0.685	0.9355
x2 = 0.745	0.9868
x2 = 0.879	1.145

CCCCCCCCCCCCCC(=O)O + CC(C)[C@@H]1CC[C@@H](C)C[C@H]1O
100 kPa, x1 = 0.2
Conditions	viscosity [mPa·s]
298.15 K	33.99
303.15 K	24.78
308.15 K	18.54
313.15 K	14.21
318.15 K	11.11
323.15 K	8.85

CCCC(C)=O + CCC(C)=O
viscosity [mPa·s], 101 kPa
Conditions	x2 = 0.2	x2 = 0.4	x2 = 0.6	x2 = 0.8
293.15 K	0.483	0.461	0.439	0.418
313.15 K	0.388	0.372	0.357	0.341

ClC(Cl)(Cl)Cl + CCC(C)=O
Conditions	viscosity [mPa·s]
298 K, 101.3 kPa, x1 = 0.1477	0.485
298 K, 101.3 kPa, x1 = 0.2858	0.543
298 K, 101.3 kPa, x1 = 0.4787	0.648
298 K, 101.3 kPa, x1 = 0.629	0.697
298 K, 101.3 kPa, x1 = 0.8296	0.792
298.15 K, 101.33 kPa, x2 = 0.1954	0.736
298.15 K, 101.33 kPa, x2 = 0.397	0.623
298.15 K, 101.33 kPa, x2 = 0.405	0.62
298.15 K, 101.33 kPa, x2 = 0.499	0.576
298.15 K, 101.33 kPa, x2 = 0.509	0.576
298.15 K, 101.33 kPa, x2 = 0.745	0.483
298.15 K, 101.33 kPa, x2 = 0.752	0.472
318 K, 101.3 kPa, x1 = 0.1385	0.3877
318 K, 101.3 kPa, x1 = 0.2858	0.4379
318 K, 101.3 kPa, x1 = 0.4821	0.5052
318 K, 101.3 kPa, x1 = 0.6311	0.5625
318 K, 101.3 kPa, x1 = 0.8418	0.6572

CCN(CC)CC + CCC(C)O
303.15 K, 101 kPa
Conditions	viscosity [mPa·s]
x1 = 0.01087	2.436
x1 = 0.02221	2.406
x1 = 0.0326	2.38
x1 = 0.04176	2.357
x1 = 0.05247	2.33
x1 = 0.06249	2.302
x1 = 0.07262	2.276
x1 = 0.08419	2.246
x1 = 0.09512	2.217

ClC(Cl)(Cl)Cl + CCC(C)O
viscosity [mPa·s], 101 kPa
Conditions	298.15 K	308.15 K	318.15 K
x2 = 0.0864	0.89	0.779	0.679
x2 = 0.1674	0.934	0.807	0.686
x2 = 0.2076	0.91	0.801	0.695
x2 = 0.2585	0.94	0.819	0.701
x2 = 0.3003	0.954	0.825	0.713
x2 = 0.3969	1.053	0.862	0.731
x2 = 0.5009	1.163	0.938	0.783
x2 = 0.5957	1.335	1.039	0.86
x2 = 0.6933	1.545	1.183	0.942
x2 = 0.7903	1.863	1.378	1.087
x2 = 0.9054	2.429	1.746	1.287

ClC(Cl)(Cl)Cl + CCCC(=O)OCC
101.33 kPa
Conditions	viscosity [mPa·s]
303.15 K, x1 = 0.061	0.606
303.15 K, x1 = 0.1443	0.621
303.15 K, x1 = 0.2812	0.648
303.15 K, x1 = 0.3929	0.672
303.15 K, x1 = 0.5226	0.699
303.15 K, x1 = 0.5625	0.708
303.15 K, x1 = 0.6324	0.726
303.15 K, x1 = 0.7331	0.748
303.15 K, x1 = 0.8278	0.778
303.15 K, x1 = 0.8866	0.798
303.15 K, x1 = 0.9455	0.819
313.15 K, x1 = 0.2056	0.586
313.15 K, x1 = 0.4083	0.615
313.15 K, x1 = 0.5058	0.631
313.15 K, x1 = 0.6059	0.647
313.15 K, x1 = 0.799	0.69
